Source: a melting point compilation (Tetko et al.; mined from patent text by program, amines drawn as free bases though some values may be those of a salt)

`OCCc1nccn1CCCCc1ccc(OCc2coc(/C=C/c3ccc(F)cc3F)n2)cc1` gave a melting point of 93 to 95 °C.
With `CCOC(=O)N(CCCOCCOCCCN(C(=O)OCC)C1CC(C)(C)NC(C)(C)C1)C1CC(C)(C)NC(C)(C)C1` the melting point was 92 to 93 °C.
For `Cc1nnsc1C(=O)Nc1ccc(-n2nc(C(F)(F)F)cc2C2CC2)nc1`, the melting point was 170 to 172 °C.
Work on `CC(=O)c1ccc(NC2=Nc3ccc(Cl)cc3CS2)cc1` yielded a melting point of 174 to 175 °C.
`Cc1c(C)c2c(c(C)c1NC(=O)c1cccs1)C(c1ccc(C(C)C)cc1)C(C)(C)O2` (centres undefined) showed a melting point of 222 to 224 °C.
`Nn1c(-c2ccccc2Cl)nnc1-c1ccccc1C(F)(F)F` showed a melting point of 172 to 175 °C.
With `O=C(CC1CCCCC1)Nc1ccc2oc3c(c2c1)CCCCC3` the melting point was 188 to 189 °C.
In the case of `CN(C)C(=O)c1ccc(NS(C)(=O)=O)c(Oc2ccc(F)cc2F)c1`, the melting point is reported as 165 to 167 °C.
`Cn1cncc1C(O)(c1ccc(Cl)cc1)c1ccc2c(c1)C(c1cccc(Cl)c1)Nc1nnnn1-2` (centres undefined) showed a melting point of 212 °C.
Work on `O=C1NC(=O)C(c2c[nH]c3ccc(Br)cc23)C1c1cc2c3c(ccn3CCC2)c1` (centres undefined) yielded a melting point of 195 to 200 °C.
Molecule `Cc1ccc(OC2CCN(C(=O)C(=O)Nc3ccc4[nH]c(=O)[nH]c4c3)CC2)cc1` has a melting point of 294 °C.
In the case of `O=C(O)c1cn(-c2ccc(F)cc2)c2c(F)c(N3Cc4ccc(Cl)cc4C3)c(F)cc2c1=O`, the melting point is reported as over 300 °C.
`O=[N+]([O-])c1ccc(F)cc1CO` showed a melting point of 82 to 86 °C.
`O=C(O)Cc1ccc(NC(=O)C(COc2ccc(Cl)cc2)NS(=O)(=O)c2ccc(I)cc2)cc1` (racemic) gave a melting point of 196 to 198 °C.
`Cc1oncc1C(=O)c1ccc(S(C)=O)c(Cl)c1Cl` (centres undefined) gave a melting point of 125 to 126 °C.
In the case of `Cc1ccc(C(=O)Nc2ccc(CN3CCN(C)CC3)c(C(F)(F)F)c2)cc1C#Cc1ccc(NC(C)C)nn1`, the melting point is reported as 67 to 68 °C.
`CCOC(=O)c1cc(C)nc2c(OCc3ccccc3)cccc12` gave a melting point of 134 °C.
In the case of `COc1ccc(Nc2ccn(C(C)=O)n2)cc1`, the melting point is reported as 123 to 124 °C.
Molecule `COc1cc2c3c(c1O)CN(C)CC3c1ccccc1CC2` (centres undefined) has a melting point of 173 to 174 °C.
For `CCCCCCCCCCCCCCCCCCNC(=O)OCC(CO)NC(=O)OC` (centres undefined), the melting point was 84 to 85 °C.
`CCOC(=O)c1n[nH]c2ncc(I)cc2c1=O` showed a melting point of 238 to 242 °C.
Molecule `CNC(=O)c1ccccc1Nc1nc(Nc2ccc3c(c2)CCN(CC(F)(F)F)CC3)ncc1Cl` has a melting point of 177 to 190 °C.
For `N#CC1=C(c2cccs2)Nc2n[nH]cc2C1c1ccccc1Cl` (centres undefined), the melting point was 174 °C.
Work on `CC1NC(=O)NN=C1c1ccc(Br)cc1` (centres undefined) yielded a melting point of 214 to 215 °C.
`CCCc1c(OCCCOc2ccc(Cl)c(Cl)c2)ccc2c1OC(CCC(=O)O)(CCC(=O)O)CC2=O` gave a melting point of 136 to 137 °C.
`COc1cc(COc2nn(-c3ccccc3)cc2/C=C/c2cncn2C)ccc1OCc1nc(-c2ccco2)oc1C` showed a melting point of 144 to 145 °C.
For `CC(=O)C1=CCC2C3CCC4CC(O)CCC4(C)C3=CCC12C` (centres undefined), the melting point was 188 to 190 °C.
Molecule `CCOC(=O)Nc1cc(C(C)=O)c2c(c1)N(NC(C)c1ccccc1)c1ccccc1CC2` (centres undefined) has a melting point of 144 to 152 °C.
With `CN(C)C(=O)N(C)c1nnc(SCc2ccccc2)s1` the melting point was 48 to 51 °C.
Work on `CNC(=O)Nc1ccc2c(c1)C(=O)NC(=O)C2(C)C` yielded a melting point of 257 to 258 °C.
Molecule `CC(=O)Oc1c(C2CCN(CCCCNC(=O)c3ccc(NC(=O)c4ccc(Cl)cc4)cc3)CC2)ccc2c1CCCC2` has a melting point of 254 °C.
With `CCSc1nnc(-c2ccc(OC)cc2)c(-c2ccc(OC)cc2)n1` the melting point was 118 to 120 °C.
`Cc1nc2ccc(C(C)(C)CNC=O)cc2[nH]1` gave a melting point of 57 to 60 °C.
Molecule `OC[C@@H]1CC=CC[C@@H]1CO` has a melting point of 33 to 35 °C.
Work on `CCCCOc1ncc(C(C)=O)cc1-c1nc2c(CC)n(C3CN(CC)C3)nc2c(=O)[nH]1` yielded a melting point of 143 to 144 °C.
For `O=C(NC[C@@H]1CN2C(=O)C[C@H]2O1)c1ccccc1` (racemic), the melting point was 115 to 116 °C.
With `Cc1oc(-c2ccccc2)nc1CCOc1ccc(CCC2OC(=O)NC2=O)cc1` (centres undefined) the melting point was 193 to 194 °C.
`CCCOc1ccccc1-c1nc2nc(-c3ccccc3)ncc2c(=O)[nH]1` showed a melting point of 203 to 204 °C.
`Cc1cccc2c(C#N)cn(C)c12` gave a melting point of 116 °C.
Work on `CC(=O)Oc1ccccc1C(=O)Oc1ccc(CO[N+](=O)[O-])cc1` yielded a melting point of 86 to 88 °C.
`NCCNC(=S)Nc1c(Cl)cccc1Cl` gave a melting point of 136 to 138 °C.
In the case of `COc1ccc(Cc2cc3cccc(-c4cccc(C(=O)NCCO)c4)c3s2)cn1`, the melting point is reported as 138 to 139 °C.
Molecule `Cc1cc(-c2ccc(Cl)cc2)cn2c(-c3nc(-c4ccc(S(N)(=O)=O)cc4)no3)cnc12` has a melting point of 311 °C.
Work on `C=CCn1c(C)nc2c(O)c(C(=O)[C@@H]3OC(C)(C)O[C@H]3c3ccccc3)ccc21` yielded a melting point of 123 °C.
Molecule `COc1cc(OC)nc(Oc2cccnc2C(=O)O)n1` has a melting point of 120 to 121 °C.
Work on `Cc1ccc(-c2ncnc(-c3cccc(C(=O)O)c3)n2)cc1` yielded a melting point of 298 to 300 °C.
With `CC1(C)CCCSc2cc(Br)ccc21` the melting point was 81 to 82 °C.
Molecule `Cc1cc2[nH]c3c(c2cc1C)CC(N(C)C)CC3` (centres undefined) has a melting point of 183 to 187 °C.
Molecule `O=c1cc(S)sc2cc(N3CCOCC3)ccc12` has a melting point of over 250 °C.
For `O=C(Nc1ccccc1S(=O)(=O)c1ccccc1)N[C@@H](Cc1ccc(Oc2nccc3ccncc23)cc1)C(=O)O`, the melting point was 164 °C.
In the case of `O=C(O)Cc1ccccc1OCCCc1cn(-c2ccc(C(F)(F)F)cn2)nc1C1CCCCC1`, the melting point is reported as 127 to 128 °C.
With `CSc1cc2c(cc1C(F)(F)F)N(C(=O)Nc1cccc(C(=O)CCCN(C)C)c1)CC2` the melting point was 178 to 180 °C.
`NC(=O)CC[C@H](NC(=O)CCc1ccc(OCc2ccccc2)cc1OCc1ccccc1)C(=O)N1CCN(c2ccccc2)CC1` showed a melting point of 118 to 120 °C.
For `CCCN(C)CCCCC1CCN(S(=O)(=O)c2ccc(C(F)(F)F)cc2)CC1`, the melting point was 73 to 74.8 °C.
`CC(CCC(F)C(C)(C)O)C1CCC2C3CC=C4CC(O)CC(O)C4(C)C3CCC12C` (centres undefined) showed a melting point of 156 to 158 °C.
Molecule `CCOC(=O)c1c[nH]c(-c2ccccc2OCc2ccccc2)n1` has a melting point of 203 to 205 °C.
For `CCc1nc(Br)c(Br)[nH]1`, the melting point was 149 to 150 °C.
For `CCOC(=O)CNC(=O)c1cc(Cl)ccc1N`, the melting point was 108 to 110 °C.
With `CCOc1csc2c(=O)c(S(C)=O)cn(C)c12` (centres undefined) the melting point was 210 to 214 °C.
With `CCOC(=NC(=O)c1ccc(OC)cc1)N1Cc2ccccc2-c2ccccc2C1` the melting point was 71 to 78 °C.
For `COc1cc(OC)nc(NC(=O)NS(=O)(=O)c2ccccc2CCCl)n1`, the melting point was 169 to 171 °C.
In the case of `Oc1c2c(nc3c(-c4cc(-c5ccccc5)cs4)cnn13)CCCC2`, the melting point is reported as 271 to 272 °C.
With `CCOC(=O)COC(=O)c1cccnc1C#N` the melting point was 74 °C.
Molecule `CN1CCN(c2ncnc3oc(-c4ccc([N+](=O)[O-])cc4)c(-c4ccc(F)cc4)c23)CC1` has a melting point of over 250 °C.
`CCOC(=O)c1cn(C2CC2)c2c(C#N)c(F)c(F)cc2c1=O` gave a melting point of 209 to 211 °C.
With `Cc1cc2c(c3c1C(c1ccc(C(C)C)cc1)CO3)CCC2` (centres undefined) the melting point was 77 to 78 °C.
Work on `CSc1ncc(CCc2cccnc2)c(=O)[nH]1` yielded a melting point of 191 to 192 °C.
Work on `NS(=O)(=O)c1ccc(-c2oc(C(F)(F)F)nc2-c2ccccc2)cc1` yielded a melting point of 137 to 138 °C.
`O=C(O)C1CCCC2c3ccccc3CC12` (centres undefined) showed a melting point of 138 to 139 °C.
`N#CC1=C2C(=NC1=O)c1c(OCc3cccs3)ccc3cccc2c13` showed a melting point of 241 to 243 °C.
With `CCn1c2ccc(C(=O)CCCCCl)cc2c2cc(C(=O)CCCCCl)ccc21` the melting point was 94 to 95 °C.
`O=C(O)c1ccc2c(c1)CCc1c(F)cccc1C2=O` gave a melting point of 248 to 250 °C.
Work on `CCSc1snc(OCOCC#CI)c1C#N` yielded a melting point of 57 to 58 °C.
`CCOC(=O)c1nc(-c2ccsc2)n(-c2cccc(Cl)c2F)c1-c1ccc(F)c(Cl)c1` showed a melting point of 207 to 209 °C.
Work on `C[C@@H](c1ccc(C(=O)N(C)NC(N)=S)cc1)[C@](O)(Cn1cncn1)c1ccc(F)cc1F` yielded a melting point of 172 to 173 °C.
Work on `Cn1cnc(COc2nn3c(-c4ccc(F)cc4F)nnc3cc2C2(C)CCCCC2)n1` yielded a melting point of 156 °C.
In the case of `CCn1ccc2c(c1=O)CN=C(N1CCNCC1)N2`, the melting point is reported as 117 to 120 °C.
For `CCCCCCC/C=C\CCCCCCCC(=O)CCCNC(C)=O`, the melting point was 51 to 52 °C.
For `CC12C=CCC=C1CCC1C2C(O)CC2(C)C(CCO)=CCC12` (centres undefined), the melting point was 213 to 215 °C.
Molecule `CN1Cc2ccccc2[C@H]2c3cccc4c3[C@H](CN4)C[C@@H]21` (relative stereo) has a melting point of 184 to 185 °C.
For `Cc1nc2ccc3c(c2o1)C(=O)CC3`, the melting point was 106 to 107 °C.
For `O=C(Nc1ccnn1-c1c(F)c(F)c(C(F)(F)F)c(F)c1F)C(Cl)Cl`, the melting point was 112 to 114 °C.
With `O=C(Nc1ccc(-n2nc(C(F)(F)F)cc2-c2cccnc2)cc1)c1ccccc1F` the melting point was 138 to 140 °C.
Work on `COc1cc(-c2cnc3[nH]cc(C(=O)Cc4ccccc4)c3n2)cc(OC)c1OC` yielded a melting point of 226 to 227 °C.
`CC(C)(C)c1cc(C=O)c(O)c(C(F)(F)F)c1` showed a melting point of 56 to 57.5 °C.
With `CCOCc1nc2c(N)nc3cc(S(C)(=O)=O)ccc3c2n1CCCOC` the melting point was 166 to 168 °C.
For `CCC(=O)C1c2cccc(O)c2C(=O)c2c(O)cccc21`, the melting point was 115 °C.
In the case of `CN(C)CCCC(c1ccncc1)S(=O)(=O)c1ccc(Cl)cc1` (centres undefined), the melting point is reported as 78 to 80 °C.
`Cc1c(-c2cccnc2)n(Cc2ccc(C(=O)O)cc2)c2ccccc12` gave a melting point of 273 to 275 °C.
`O=C1c2ccccc2C(=O)N1[C@@H]1C=CCC[C@@H]1O` (racemic) gave a melting point of 112 to 114 °C.
For `O=S(=O)(c1cccc(-c2cc(-c3nc(-c4ccc(C(F)(F)F)cc4)cc(C(F)(F)F)n3)ccn2)c1)N1CCCC1`, the melting point was 184 °C.
`O=C(c1ccccc1)c1ccc(CP(=O)(O)O)cc1` showed a melting point of 172 to 175 °C.
`COc1ccc(CN2C(=O)CC[C@@]3(C)c4ccc(Cl)cc4CC[C@H]23)cc1` (relative stereo) gave a melting point of 55 to 60 °C.
Work on `CCOC(Cc1ccc(OCC=C2c3ccccc3CCc3ccccc32)cc1)C(=O)O` (centres undefined) yielded a melting point of 147 to 150 °C.
`N#CC=C1CC2(CCCC2)c2ccccc21` showed a melting point of 82 °C.
For `Clc1cc(CCc2ccccn2)c2oc(-c3ccsc3)nc2c1`, the melting point was 126 to 127 °C.
Work on `C/C(=C\c1ccc(O)cc1)c1ccc2c(c1)SC(C)(C)S2` yielded a melting point of 123 to 124 °C.
`CCNC(=O)OCCOc1ccc(Oc2ccc(F)cc2)cc1` gave a melting point of 60 to 62 °C.
`N#CC(C(=O)Nc1ccon1)C(=O)c1nn(-c2ccccc2)c2c1CSc1ccccc1-2` (centres undefined) showed a melting point of 228 to 230 °C.
